The subject of one assay is Colo 205 tumors. Description: Growth inhibition of colorectal cell tumors. It is filed as in vivo, nude mice. The procedure:
Tumors were induced in nude mice as described in Example IX except that Colo 205 cells (ATCC CCL 222) were used. Colo 205 cells are human colorectal adenocarcinoma cells. Mice with established subcutaneous tumors of approximately 250 mm^3 were treated with various amounts of 2.13.2 antibody (i.p.) or with 100 mg/kg […] (5-FU, i.v.), either as single agents or in combination, as described in Example IX. […] Mice with established Colo 205 tumors were treated on days 1, 8, 15 and 22 with 500 μg 2.13.2 (i.p.), 100 mg/kg 5-FU (i.v.) or a combination thereof.

In another assay the test system is canine IGF-IR. Nature of the assay: Species crossreactivity by immunoprecipitation/Western blot. Type of assay: binding. To be noted: immunoprecipitation, antibody 1 μg/ml. How it is done:
(§1) To perform immunoprecipitation experiments, we plated cells in DMEM high glucose media supplemented with L-glutamine (0.29 mg/ml), 10% heat-inactivated FBS, and 500 μg/ml each of geneticin, penicillin and streptomycin to 50% confluence in T25 flasks. We then added 100 μl of an antibody of the invention in Hank's buffered saline solution (HBSS; Gibco BRL) at a concentration of 1 μg/ml. We incubated the plates for 30 minutes at 37° C. in an incubator and then stimulated the cells with IGF-I at 100 ng/ml for 10 minutes at room temperature. We lysed the cells in RIPA buffer (Harlow and Lane, supra) and immunoprecipitated IGF-IR with 2 μg of pan-specific SC-713 anti-IGF-IR antibody (Santa Cruz) plus protein A agarose beads for 1 hour at 4° C. We pelleted the beads and wash three times with PBS/T (PBS+0.1% Tween-20) and then boiled the beads in 40 μl Laemmli buffer containing 5% βME.
(§2) The samples prepared as described above were then analyzed by Western blot. We loaded 12 μl of each sample per lane on 4-10% gradient Novex™ gels run with 1×MES buffer (Novex™). Gels were run at 150V for 1 hour or at 200V for approximately 30 minutes. We then transferred the gel to a membrane in Novex™ transfer buffer with 10% methanol either overnight at 100 mA or for 1-1.5 hours at 250 mA. We then allowed the membrane to dry completely and blocked at room temperature with TBS (Tris-buffered saline pH 8.0) containing Superblock (Pierce Chemical Co.). We added the IGF-IR blotting antibody SC713 (Santa Cruz) to detect immunoprecipitated IGF-IR.
For orientation: A western blot detects proteins with antibodies after separation by electrophoresis.

Another assay concerns guinea pig IGF-IR. The assay is described as above. It is filed as binding. To be noted: immunoprecipitation, antibody 1 μg/ml. How it is done: as §1, §2
The test system of another assay is IGF-IR from the marmoset. The description is as above. It is filed as binding. Particulars: immunoprecipitation, antibody 1 μg/ml. The procedure:
as §1, §2

The next assay deals with Rhesus IGF-IR. The assay is described as above. To be noted: immunoprecipitation, antibody 1 μg/ml. Type of assay: binding. How it is done: as §1, §2
For a further assay, the system named is rabbit IGF-IR. The assay is described as above. Type of assay: binding. Particulars: immunoprecipitation, antibody 1 μg/ml. The procedure:
as §1, §2

The next assay deals with 3T3/IGF-IR cell tumors. Nature of the assay: Growth inhibition of 3T3/IGF-IR cell tumors. Type of assay: in vivo, athymic (nu/nu) mice. The procedure:
We tested whether anti-IGF-IR antibodies of the invention would function to inhibit tumor growth. We induced tumors as described above (Example VIII) and when established, palpable tumors formed (i.e. 250 mm^3, within 6-9 days), we treated the mice with a single, 0.20 ml dose of antibody by intraperitoneal injection. We measured tumor size by Vernier calipers across two diameters every third day and calculated the volume using the formula (length×[width]^2)/2 using methods established by Geran, et al., “Protocols for screening chemical agents and natural products against animal tumors and other biological systems,” Cancer Chemother. Rep. 3:1-104.
Tumors were induced in nude mice as described in Example IX. Mice with established subcutaneous tumors of approximately 250 mm^3 were treated on days 1, 8, 15 and 22 with various amounts of 2.13.2 antibody (i.p.) or 7.5 mg/kg adriamycin (i.v.), either as single agents or in combination, as described in Example IX.
Tumors were induced in nude mice as described in Example IX. Mice with large established subcutaneous tumors of slightly less than 2000 mm^3 were treated on days 1 and 8 with various amounts of 2.13.2 antibody (i.p.) or 7.5 mg/kg adriamycin (i.v.), either as single agents or in combination, as described in Example IX. […] Control, antibody alone and adriamycin alone animal groups were terminated at day 5, when the tumor size exceeded 2000 mm^3.

A further assay addresses IGF-IR (Homo sapiens, UniProt P08069). Description: IGF-IR levels in 3T3/IGF-IR tumors by western blot after antibody and/or adriamycin. Type of assay: in vivo, nude mice. Details: expressed in transfected cells; host or cells: NIH-3T3 (mouse fibroblasts). How it is done: Tumors were induced in nude mice as described in Example IX. Mice with established subcutaneous tumors of approximately 400 mm^3 were treated with a single injection of 250 μg 2.13.2 antibody (i.p.) or with 7.5 mg/kg adriamycin (i.v.), either as single agents or in combination, as described in Example IX. 72 hours after administration of the agents, tumors were extracted as described in Example VIII, and equal amounts of the tumor extracts were subjected to sodium […] polyacrylamide gel electrophoresis (SDS PAGE) and western blot analysis using the anti-IGF-IR antibody SC-713 (Santa Cruz). […] Each lane represents equal amounts of protein from individual tumors from individual mice.

On to “2.13.2: human IgG2κ monoclonal antibody specific for IGF-IR from hybridoma 2.13.2 (ATCC PTA-2788)”, for which the “Colo 205 tumor growth” value with Colo 205 tumors (500 μg i.p. on days 1, 8, 15 and 22) is “inhibits human colorectal cancer cell growth”; in the assay on Colo 205 tumors (antibody i.p. given once, single agent) it was “inhibits human colorectal cancer cell growth”. Besides, the “effect on effectiveness of 5-FU” value in the assay on Colo 205 tumors (500 μg i.p. on days 1, 8, 15 and 22 with 100 mg/kg 5-FU i.v.) was “enhances the effectiveness of 5-FU”; with Colo 205 tumors (antibody given once with 100 mg/kg 5-FU i.v.), “enhances the effectiveness of 5-FU”. In the assay on canine IGF-IR, the “binding to canine IGF-IR” value is “not”. Besides, the “binding to guinea pig IGF-IR” value in the assay on guinea pig IGF-IR is “not”. Further, the “binding to marmoset IGF-IR” value with IGF-IR from the marmoset was “not”. Moreover, the “binding to Rhesus IGF-IR” value in the assay with Rhesus IGF-IR is listed as “able to bind”. Also, the “binding to rabbit IGF-IR” value with rabbit IGF-IR is “not”. For the same substance, in the assay on 3T3/IGF-IR cell tumors (antibody i.p. on days 1, 8, 15 and 22, single agent), the tumor cell growth entry is “inhibits tumor cell growth”. In addition, in the assay with 3T3/IGF-IR cell tumors (combination with single dose 7.5 mg/kg adriamycin i.v.), the “growth delay versus treatment with the antibody or adriamycin alone” value stood at 7 days. Further, the “tumor cell growth in combination with adriamycin” value in the assay on 3T3/IGF-IR cell tumors (days 1, 8, 15 and 22, with 7.5 mg/kg adriamycin i.v.) is “enhances inhibition of tumor cell growth”. The “effect on effectiveness of adriamycin” value in the assay with 3T3/IGF-IR cell tumors (single dose antibody with single dose 7.5 mg/kg adriamycin i.v.) is listed as “enhanced the effectiveness of adriamycin”. In the assay with 3T3/IGF-IR cell tumors (single treatment i.p., antibody alone), the tumor growth result was “inhibited the growth”. In addition, in the assay on 3T3/IGF-IR cell tumors (tumors slightly less than 2000 mm^3, days 1 and 8, with 7.5 mg/kg adriamycin i.v.), the “efficacy against large tumors in combination with adriamycin” value is reported as “highly efficacious”. Besides, the “IGF-IR levels in tumors, adriamycin and antibody together” value in the assay with IGF-IR (72 hours after 250 μg 2.13.2 i.p. plus 7.5 mg/kg adriamycin i.v.) is on record as “dramatic decrease in IGF-IR levels”. Besides, the “IGF-IR levels in tumors, single agent” value with IGF-IR (72 hours after single 250 μg 2.13.2 i.p. or 7.5 mg/kg adriamycin i.v.) is on record as “some decrease in IGF-IR levels”.

(Values after patent publication US7815907B2, “Antibodies to insulin-like growth factor I receptor” (Amgen Fremont Inc., priority 2001, dated 2010).)
